Where “and” joins values, the source holds several entries; their conditions need not be identical. Equal entries are not always repeated. Toxic doses and inconclusive results are not listed.
Test system: BDF1 mice, B16 melanoma ip, median survival T/C
Assay: NCI In Vivo Anticancer Drug Screen. Data for tumor model B16 Melanoma (intraperitoneal) in B6D2F1 (BDF1) mice
Conditions: endpoint: median survival time, higher = longer survival
Outline: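 In this screen, activity was judged from survival or tumor size in treated versus vehicle-treated tumor-bearing mice, reported as T/C.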

[1] = dose: 25.0 mg/kg/injection, schedule: Q04DX003 (ip), vehicle: Klucel (hydroxypropylcellulose) (HPC)
[2] = dose: 12.5 mg/kg/injection, schedule: Q01DX009 (ip), vehicle: Klucel (hydroxypropylcellulose) (HPC)
[3] = dose: 25.0 mg/kg/injection, schedule: Q01DX009 (ip), vehicle: Klucel (hydroxypropylcellulose) (HPC)
[4] = dose: 50.0 mg/kg/injection, schedule: Q01DX009 (ip), vehicle: Klucel (hydroxypropylcellulose) (HPC)
[5] = dose: 2.0 mg/kg/injection, schedule: Q01DX009 (ip), vehicle: saline
[6] = dose: 4.0 mg/kg/injection, schedule: Q01DX009 (ip), vehicle: saline
[7] = dose: 100.0 mg/kg/injection, schedule: Q01DX009 (ip), vehicle: Klucel (hydroxypropylcellulose) (HPC)
[8] = dose: 200.0 mg/kg/injection, schedule: Q01DX009 (ip), vehicle: Klucel (hydroxypropylcellulose) (HPC)
[9] = dose: 400.0 mg/kg/injection, schedule: Q01DX009 (ip), vehicle: Klucel (hydroxypropylcellulose) (HPC)
[10] = dose: 50.0 mg/kg/injection, schedule: Q01DX009 (ip), vehicle: saline with Tween-80
[11] = dose: 100.0 mg/kg/injection, schedule: Q01DX009 (ip), vehicle: saline with Tween-80
[12] = dose: 100.0 mg/kg/injection, schedule: Q01DX009 (ip), vehicle: saline
[13] = dose: 200.0 mg/kg/injection, schedule: Q01DX009 (ip), vehicle: saline
[14] = dose: 0.75 mg/kg/injection, schedule: Q01DX009 (ip), vehicle: saline
[15] = dose: 1.5 mg/kg/injection, schedule: Q01DX009 (ip), vehicle: saline

## Cc1ccc2c(c1)CC(C)([CH2][Hg][Cl])O2 (stereo not given)
dose: 0.75 mg/kg/injection, schedule: Q01DX009 (ip), vehicle: Klucel (hydroxypropylcellulose) (HPC)
  T/C: 100 % of control
dose: 0.75 mg/kg/injection, schedule: Q04DX003 (ip), vehicle: Klucel (hydroxypropylcellulose) (HPC)
  T/C: 95 % of control
dose: 1.5 mg/kg/injection, schedule: Q01DX009 (ip), vehicle: Klucel (hydroxypropylcellulose) (HPC)
  T/C: 93 % of control
dose: 1.5 mg/kg/injection, schedule: Q04DX003 (ip), vehicle: Klucel (hydroxypropylcellulose) (HPC)
  T/C: 100 % of control
dose: 3.0 mg/kg/injection, schedule: Q01DX009 (ip), vehicle: Klucel (hydroxypropylcellulose) (HPC)
  T/C: 92 % of control and 95 % of control
dose: 3.0 mg/kg/injection, schedule: Q04DX003 (ip), vehicle: Klucel (hydroxypropylcellulose) (HPC)
  T/C: 93 % of control and 95 % of control

## Cc1ccc(NS(=O)(=O)c2ccc([N+](=O)[O-])cc2)cc1
[1]
  T/C: 115 % of control
dose: 50.0 mg/kg/injection, schedule: Q04DX003 (ip), vehicle: Klucel (hydroxypropylcellulose) (HPC)
  T/C: 103 % of control
dose: 100.0 mg/kg/injection, schedule: Q04DX003 (ip), vehicle: Klucel (hydroxypropylcellulose) (HPC)
  T/C: 108 % of control
dose: 200.0 mg/kg/injection, schedule: Q04DX003 (ip), vehicle: Klucel (hydroxypropylcellulose) (HPC)
  T/C: 97 % of control
dose: 400.0 mg/kg/injection, schedule: Q04DX003 (ip), vehicle: Klucel (hydroxypropylcellulose) (HPC)
  T/C: 115 % of control

## Cc1cc(CCl)c(C)c(Br)c1C
dose: 6.25 mg/kg/injection, schedule: Q01DX009 (ip), vehicle: Klucel (hydroxypropylcellulose) (HPC)
  T/C: 97 % of control
[2]
  T/C: 119 % of control
[3]
  T/C: 105 % of control
[4]
  T/C: 105 % of control

## CCC1=C(C[C@H]2NCCc3cc(OC)c(OC)cc32)C[C@H]2c3cc(OC)c(OC)cc3CCN2C1
dose: 2.0 mg/kg/injection, schedule: Q01DX009 (ip), vehicle: Klucel (hydroxypropylcellulose) (HPC)
  T/C: 114 % of control
[5]
  T/C: 103 % of control and 111 % of control
[6]
  T/C: 106 % of control and 107 % of control
dose: 5.0 mg/kg/injection, schedule: Q01DX005 (ip), vehicle: saline
  T/C: 118 % of control
dose: 5.0 mg/kg/injection, schedule: Q01DX009 (ip), vehicle: Klucel (hydroxypropylcellulose) (HPC)
  T/C: 116 % of control

## N#CC(c1ccccc1)N1CCCCC1 (stereo not given)
[4]
  T/C: 93 % of control
[7]
  T/C: 90 % of control

## c1ccc([C@H]2CN3CCSC3=N2)cc1
dose: 0.15 mg/kg/injection, schedule: Q01DX009 (ip), vehicle: saline
  T/C: 97 % of control
dose: 0.31 mg/kg/injection, schedule: Q01DX009 (ip), vehicle: saline
  T/C: 89 % of control and 102 % of control
dose: 0.63 mg/kg/injection, schedule: Q01DX009 (ip), vehicle: saline
  T/C: 102 % of control
dose: 1.25 mg/kg/injection, schedule: Q01DX009 (ip), vehicle: saline
  T/C: 102 % of control
dose: 2.5 mg/kg/injection, schedule: Q01DX009 (ip), vehicle: saline
  T/C: 103 % of control
dose: 5.0 mg/kg/injection, schedule: Q01DX009 (ip), vehicle: saline
  T/C: 89 % of control
dose: 10.0 mg/kg/injection, schedule: Q01DX009 (ip), vehicle: saline
  T/C: 89 % of control
dose: 20.0 mg/kg/injection, schedule: Q01DX009 (ip), vehicle: saline
  T/C: 107 % of control
dose: 40.0 mg/kg/injection, schedule: Q01DX009 (ip), vehicle: saline
  T/C: 86 % of control

## CN(C)N=Nc1ccc(NC(N)=O)cc1
dose: 18.75 mg/kg/injection, schedule: Q01DX009 (ip), vehicle: Klucel (hydroxypropylcellulose) (HPC)
  T/C: 123 % of control
dose: 37.5 mg/kg/injection, schedule: Q01DX009 (ip), vehicle: Klucel (hydroxypropylcellulose) (HPC)
  T/C: 86 % of control

## CCc1cc(Cc2cc(CC)cc(C(C)(C)C)c2O)c(O)c(C(C)(C)C)c1
[7]
  T/C: 88 % of control
[8]
  T/C: 88 % of control
[9]
  T/C: 89 % of control

## O=S1(=O)CC(Cl)C(Cl)C1 (stereo not given)
dose: 3.12 mg/kg/injection, schedule: Q01DX009 (ip), vehicle: Klucel (hydroxypropylcellulose) (HPC)
  T/C: 91 % of control
[2]
  T/C: 96 % of control

## CCN(CC)Cc1ncccc1O
[4]
  T/C: 107 % of control
[7]
  T/C: 103 % of control

## CCCCCCCCCC(O)CCCC (stereo not given)
[3]
  T/C: 108 % of control
[4]
  T/C: 105 % of control
[7]
  T/C: 86 % of control

## COc1ccc(Cl)cc1NC(=O)C(Br)C(Br)C(=O)O (stereo not given)
dose: 12.5 mg/kg/injection, schedule: Q01DX009 (ip), vehicle: saline with Tween-80
  T/C: 102 % of control
dose: 25.0 mg/kg/injection, schedule: Q01DX009 (ip), vehicle: saline with Tween-80
  T/C: 105 % of control
[10]
  T/C: 95 % of control
[11]
  T/C: 89 % of control
dose: 200.0 mg/kg/injection, schedule: Q01DX009 (ip), vehicle: saline with Tween-80
  T/C: 91 % of control

## CNC1C(OC2C(OC3C(O)C(O)C(N=C(N)N)C(O)C3N=C(N)N)OC(C)C2(O)C=O)OC(CO)C(O)C1O (stereo not given)
dose: 100.0 mg/kg/injection, schedule: Q01DX009 (ip), vehicle: water
  T/C: 110 % of control
dose: 200.0 mg/kg/injection, schedule: Q01DX009 (ip), vehicle: water
  T/C: 108 % of control

## Cc1nccc(=O)[nH]1
[12]
  T/C: 90 % of control
dose: 100.0 mg/kg/injection, schedule: Q04DX003 (ip), vehicle: saline
  T/C: 117 % of control
[13]
  T/C: 107 % of control
dose: 200.0 mg/kg/injection, schedule: Q04DX003 (ip), vehicle: saline
  T/C: 100 % of control

## CC1(C)N=C(N)N=C(N)N1c1cc(Cl)c(Cl)cc1Cl
[2]
  T/C: 94 % of control
[3]
  T/C: 99 % of control

## CC(C)N(CCCO)C(C)C
[10]
  T/C: 101 % of control
[11]
  T/C: 97 % of control

## CC(C)(C)NC(=O)CCC(CC(=O)NC(C)(C)C)S(=O)(=O)O (stereo not given)
dose: 50.0 mg/kg/injection, schedule: Q01DX009 (ip), vehicle: saline
  T/C: 118 % of control
[12]
  T/C: 112 % of control
[13]
  T/C: 93 % of control

## CCCCCCCCCCCCCCCCCC(=O)NNCCO
[10]
  T/C: 86 % of control

## COc1cc(NS(C)(=O)=O)ccc1Nc1c2ccccc2nc2c(C)cccc12
[5]
  T/C: 151 % of control
dose: 2.5 mg/kg/injection, schedule: Q01DX009 (ip), vehicle: other
  T/C: 180 % of control
[6]
  T/C: 213 % of control
dose: 5.0 mg/kg/injection, schedule: Q01DX009 (ip), vehicle: other
  T/C: 190 % of control
dose: 5.0 mg/kg/injection, schedule: Q01DX009 (ip), vehicle: saline with Tween-80
  T/C: 167 % of control
dose: 10.0 mg/kg/injection, schedule: Q01DX001 (ip), vehicle: saline sonified
  T/C: 163 % of control
dose: 12.5 mg/kg/injection, schedule: Q04DX003 (ip), vehicle: Klucel (hydroxypropylcellulose) (HPC)
  T/C: 160 % of control
dose: 20.0 mg/kg/injection, schedule: Q01DX001 (ip), vehicle: saline sonified
  T/C: 166 % of control
[1]
  T/C: 200 % of control
dose: 60.0 mg/kg/injection, schedule: Q01DX001 (ip), vehicle: saline sonified
  T/C: 183 % of control

## O=C1C=C(Nc2ccccc2)c2ccccc2C1=O
[2]
  T/C: 93 % of control
[3]
  T/C: 105 % of control
[4]
  T/C: 88 % of control
[7]
  T/C: 87 % of control

## Nc1ccc2ccc(O)cc2c1
dose: 75.0 mg/kg/injection, schedule: Q04DX003 (ip), vehicle: saline with Tween-80
  T/C: 105 % of control
dose: 150.0 mg/kg/injection, schedule: Q04DX003 (ip), vehicle: saline with Tween-80
  T/C: 95 % of control

## CC(=O)c1ccc2c(c1)N(CCCN1CCN(CCO)CC1)c1ccccc1S2
dose: 0.78 mg/kg/injection, schedule: Q01DX009 (ip), vehicle: saline
  T/C: 98 % of control
dose: 1.56 mg/kg/injection, schedule: Q01DX009 (ip), vehicle: saline
  T/C: 103 % of control
dose: 3.12 mg/kg/injection, schedule: Q01DX009 (ip), vehicle: saline
  T/C: 97 % of control

## CCC(C)(C)c1ccc(O)c(C(C)(C)CC)c1
[7]
  T/C: 93 % of control
[8]
  T/C: 106 % of control
[9]
  T/C: 106 % of control

## [CH3][Pb]([CH3])([CH3])[Cl]
[14]
  T/C: 117 % of control
[15]
  T/C: 103 % of control

## Cc1c2cc[n+](C)cc2c(C)c2c1[nH]c1ccc(O)cc12
dose: 0.06 mg/kg/injection, schedule: Q01DX009 (ip), vehicle: water
  T/C: 111 % of control
dose: 0.25 mg/kg/injection, schedule: Q01DX009 (ip), vehicle: water
  T/C: 158 % of control

## C=CCN1C(=O)C=CC1=O
[14]
  T/C: 102 % of control
[15]
  T/C: 93 % of control

Reference: PubChem BioAssay AID192 (DTP/NCI, 2004)
